Experimental data taken from patent publication US20260355212A1 (priority 2022, published 2026).
Where two headings read alike, the source gives them in different places.

Experiments:
SARS-CoV-1 Mpro = SARS-CoV-1 Mpro (Severe acute respiratory syndrome coronavirus, UniProt P0C6X7); assay: biochemical
SARS-CoV-2 Mpro = SARS-CoV-2 Mpro (Severe acute respiratory syndrome coronavirus 2, UniProt P0DTD1); assay: SARS-CoV-2 Mpro enzymatic inhibition assay (fluorescence); type: biochemical
How it was run: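 A fluorescence readout (340 nm excitation, 490 nm emission) was taken after the substrate reaction ran 60 min at 30° C. Before substrate addition, E. coli-expressed protease and compound (3-fold dilutions, 10 doses, duplicates) sat together 30 min at room temperature. Percent inhibition was fitted by variable-slope nonlinear regression to give IC50.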

HCoV-HKU1 Mpro = HCoV-HKU1 Mpro (Human coronavirus HKU1, UniProt P0C6X2); assay: HCoV-HKU1 Mpro enzymatic inhibition assay (fluorescence); type: biochemical
How it was run: (§1)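 Steps: compound dilution series (3-fold, 10 doses) dispensed; Mpro added and pre-incubated 30 min at room temperature; substrate added; plates incubated 60 min at 30 °C; fluorescence measured at Ex/Em=340 nm/490 nm.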

MERS Mpro = MERS Mpro (Middle East respiratory syndrome-related coronavirus, UniProt K9N7C7); assay: biochemical; parameters: species or system MERS-CoV
HCoV-229E Mpro = HCoV-229E Mpro (Human coronavirus 229E, UniProt P0C6X1); assay: HCoV-229E Mpro enzymatic inhibition assay (fluorescence); type: biochemical
HCoV-OC43 Mpro = HCoV-OC43 Mpro (Human coronavirus OC43, UniProt P0C6X6); assay: HCoV-OC43 Mpro enzymatic inhibition assay (fluorescence); type: biochemical
How it was run: as §1

HCoV-NL63 Mpro = HCoV-NL63 Mpro (Human coronavirus NL63, UniProt P0C6X5); assay: HCoV-NL63 Mpro enzymatic inhibition assay (fluorescence); type: biochemical
How it was run: as §1

[1] = mean, 25 nM protein, 25 μM substrate, 30 min pre-incubation, 60 min at 30° C., read-out: Mpro_SARS-CoV-2 mean IC50

Sequence of HCoV-OC43 Mpro (P0C6X6 3247-3549 limits assumed): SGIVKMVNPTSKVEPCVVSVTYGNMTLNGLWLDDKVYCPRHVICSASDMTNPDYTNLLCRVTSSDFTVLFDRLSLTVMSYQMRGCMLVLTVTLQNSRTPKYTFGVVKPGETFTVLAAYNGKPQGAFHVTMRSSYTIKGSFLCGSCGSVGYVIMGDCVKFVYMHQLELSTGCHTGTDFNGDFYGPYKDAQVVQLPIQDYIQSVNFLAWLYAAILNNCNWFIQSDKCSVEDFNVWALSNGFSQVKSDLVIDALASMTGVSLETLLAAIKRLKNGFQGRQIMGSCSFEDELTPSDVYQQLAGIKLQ
Sequence of HCoV-NL63 Mpro (P0C6X5 2940-3242 limits assumed): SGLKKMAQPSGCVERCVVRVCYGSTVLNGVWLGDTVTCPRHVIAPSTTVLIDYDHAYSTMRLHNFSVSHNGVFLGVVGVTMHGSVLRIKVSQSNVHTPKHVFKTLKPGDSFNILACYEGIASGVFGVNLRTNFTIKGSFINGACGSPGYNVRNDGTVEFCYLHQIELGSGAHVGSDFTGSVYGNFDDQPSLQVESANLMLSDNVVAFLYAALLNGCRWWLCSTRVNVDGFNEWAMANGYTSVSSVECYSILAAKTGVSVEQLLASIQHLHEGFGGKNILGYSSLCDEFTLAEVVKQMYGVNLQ
Sequence of HCoV-HKU1 Mpro (P0C6X2 3335-3637 limits assumed): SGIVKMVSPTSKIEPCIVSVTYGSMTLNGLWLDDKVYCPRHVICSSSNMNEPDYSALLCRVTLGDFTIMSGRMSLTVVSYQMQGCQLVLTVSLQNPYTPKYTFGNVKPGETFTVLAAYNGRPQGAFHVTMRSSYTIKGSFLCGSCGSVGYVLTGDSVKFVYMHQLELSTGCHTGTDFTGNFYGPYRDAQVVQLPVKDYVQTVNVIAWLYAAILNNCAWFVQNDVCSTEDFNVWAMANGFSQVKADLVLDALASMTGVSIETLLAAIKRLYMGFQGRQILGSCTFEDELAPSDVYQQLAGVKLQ
Sequence of HCoV-229E Mpro (P0C6X1 2966-3267 limits assumed): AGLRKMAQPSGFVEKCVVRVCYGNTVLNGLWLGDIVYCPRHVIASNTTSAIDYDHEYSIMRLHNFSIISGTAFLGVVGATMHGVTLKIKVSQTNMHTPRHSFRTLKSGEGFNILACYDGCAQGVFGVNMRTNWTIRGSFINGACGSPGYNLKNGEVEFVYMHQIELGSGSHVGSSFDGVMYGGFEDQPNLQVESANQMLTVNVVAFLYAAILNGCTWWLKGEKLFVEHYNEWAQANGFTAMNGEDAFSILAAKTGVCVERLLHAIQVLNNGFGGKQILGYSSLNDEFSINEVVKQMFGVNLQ
Sequence of MERS Mpro (K9N7C7 3248-3553 limits assumed): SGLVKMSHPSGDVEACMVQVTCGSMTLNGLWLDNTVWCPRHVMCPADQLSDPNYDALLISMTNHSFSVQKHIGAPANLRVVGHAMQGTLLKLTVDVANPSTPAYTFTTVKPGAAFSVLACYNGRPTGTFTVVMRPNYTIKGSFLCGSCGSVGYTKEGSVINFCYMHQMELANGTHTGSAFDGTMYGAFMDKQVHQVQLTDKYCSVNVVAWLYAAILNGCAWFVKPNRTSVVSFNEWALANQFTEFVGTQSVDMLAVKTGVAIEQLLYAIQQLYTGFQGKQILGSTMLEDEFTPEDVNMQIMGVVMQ

## N#Cc1cccc2[nH]c(C(=O)N3CC4(CC4)C[C@H]3C(=O)N[C@H](C=O)C[C@@H]3CCNC3=O)cc12 [Compound 76, (S)-5-(4-Cyano-1H-indole-2-carbonyl)-N—((S)-1-oxo-3-((S)-2-oxopyrrolidin-3-yl)propan-2-yl)-5-azaspiro[2.4]heptane-6-carboxamide]
SARS-CoV-1 Mpro
  IC50: 60.6 nM
SARS-CoV-2 Mpro
  IC50: 32.7 nM
HCoV-HKU1 Mpro
  IC50: 13.1 nM
MERS Mpro
  IC50: 200 nM
HCoV-229E Mpro
  IC50: 26.9 nM
HCoV-OC43 Mpro
  IC50: 30.1 nM
HCoV-NL63 Mpro
  IC50: 33 nM

## Cc1ccc(F)c2[nH]c(C(=O)N3C[C@H]4[C@@H]([C@H]3C(=O)N[C@H](C=O)C[C@@H]3CCNC3=O)C4(C)C)cc12 [Compound 77, (1R,2S,5S)-3-(7-Fluoro-4-methyl-1H-indole-2-carbonyl)-6,6-dimethyl-N—((S)-1-oxo-3-((S)-2-oxopyrrolidin-3-yl)propan-2-yl)-3-azabicyclo[3.1.0]hexane-2-carboxamide]
SARS-CoV-1 Mpro
  IC50: 27.6 nM
SARS-CoV-2 Mpro
  IC50: 33.1 nM
HCoV-HKU1 Mpro
  IC50: 45.3 nM
MERS Mpro
  IC50: 401 nM
HCoV-229E Mpro
  IC50: 41.9 nM
HCoV-OC43 Mpro
  IC50: 83.8 nM
HCoV-NL63 Mpro
  IC50: 99.2 nM

## CC1(C)[C@@H]2[C@@H](C(=O)N[C@H](C=O)C[C@@H]3CCNC3=O)N(C(=O)c3cc4occc4[nH]3)C[C@@H]21 [Compound 78, (1R,2S,5S)-3-(4H-Furo[3,2-b]pyrrole-5-carbonyl)-6,6-dimethyl-N—((S)-1-oxo-3-((S)-2-oxopyrrolidin-3-yl)propan-2-yl)-3-azabicyclo[3.1.0]hexane-2-carboxamide]
SARS-CoV-1 Mpro
  IC50: 86.8 nM
SARS-CoV-2 Mpro
  IC50: 33.3 nM
HCoV-HKU1 Mpro
  IC50: 51.1 nM
MERS Mpro
  IC50: 479 nM
HCoV-229E Mpro
  IC50: 37.4 nM
HCoV-OC43 Mpro
  IC50: 66.9 nM
HCoV-NL63 Mpro
  IC50: 81.3 nM

## CC1(C)[C@@H]2[C@@H](C(=O)N[C@H](C=O)C[C@@H]3CCCNC3=O)N(C(=O)CC3CCCCC3)C[C@@H]21 [Compound 79, (1R,2S,5S)-3-(2-Cyclohexylacetyl)-6,6-dimethyl-N—((S)-1-oxo-3-((S)-2-oxopiperidin-3-yl)propan-2-yl)-3-azabicyclo[3.1.0]hexane-2-carboxamide]
SARS-CoV-1 Mpro
  IC50: 25.9 nM
SARS-CoV-2 Mpro
  IC50: 34.5 nM
HCoV-HKU1 Mpro
  IC50: 27.1 nM
MERS Mpro
  IC50: 177 nM
HCoV-229E Mpro
  IC50: 50.8 nM
HCoV-OC43 Mpro
  IC50: 38.6 nM
HCoV-NL63 Mpro
  IC50: 57.8 nM

## CC1(C)[C@@H]2[C@@H](C(=O)N[C@H](C=O)C[C@@H]3CCNC3=O)N(C(=O)c3cc4cc(S(C)(=O)=O)ccc4[nH]3)C[C@@H]21 [Compound 80, (1R,2S,5S)-6,6-Dimethyl-3-(5-(methylsulfonyl)-1H-indole-2-carbonyl)-N—((S)-1-oxo-3-((S)-2-oxopyrrolidin-3-yl)propan-2-yl)-3-azabicyclo[3.1.0]hexane-2-carboxamide]
SARS-CoV-1 Mpro
  IC50: 75.5 nM
SARS-CoV-2 Mpro
  IC50: 35 nM
HCoV-HKU1 Mpro
  IC50: 22.5 nM
MERS Mpro
  IC50: 384 nM
HCoV-229E Mpro
  IC50: 28.6 nM
HCoV-OC43 Mpro
  IC50: 63.3 nM
HCoV-NL63 Mpro
  IC50: 48.2 nM

## O=C[C@H](C[C@@H]1CCNC1=O)NC(=O)[C@@H]1C[C@@H](C2CCCCC2)CN1C(=O)c1cc2cccc(Cl)c2[nH]1 [Compound 81, (2S,4S)-1-(7-chloro-1H-indole-2-carbonyl)-4-cyclohexyl-N—((S)-1-oxo-3-((S)-2-oxopyrrolidin-3-yl)propan-2-yl)pyrrolidine-2-carboxamide]
SARS-CoV-1 Mpro
  IC50: 125 nM
SARS-CoV-2 Mpro
  IC50: 35.3 nM
HCoV-HKU1 Mpro
  IC50: 37 nM
MERS Mpro
  IC50: 2980 nM
HCoV-229E Mpro
  IC50: 78.2 nM
HCoV-OC43 Mpro
  IC50: 173 nM
HCoV-NL63 Mpro
  IC50: 1050 nM

## N#Cc1ccc2cc(C(=O)N3CC4(CC4)C[C@H]3C(=O)N[C@H](C=O)C[C@@H]3CCNC3=O)[nH]c2c1 [Compound 82, (S)-5-(6-Cyano-1H-indole-2-carbonyl)-N—((S)-1-oxo-3-((S)-2-oxopyrrolidin-3-yl)propan-2-yl)-5-azaspiro[2.4]heptane-6-carboxamide]
SARS-CoV-1 Mpro
  IC50: 35.1 nM
SARS-CoV-2 Mpro
  IC50: 35.5 nM
HCoV-HKU1 Mpro
  IC50: 10.6 nM
MERS Mpro
  IC50: 176 nM
HCoV-229E Mpro
  IC50: 26.1 nM
HCoV-OC43 Mpro
  IC50: 33.7 nM
HCoV-NL63 Mpro
  IC50: 30.1 nM

## CC1(C)[C@@H]2[C@@H](C(=O)N[C@H](C=O)C[C@@H]3CCNC3=O)N(C(=O)c3cc4ncccc4[nH]3)C[C@@H]21 [Compound 83, (1R,2S,5S)-6,6-dimethyl-N—((S)-1-oxo-3-((S)-2-oxopyrrolidin-3-yl)propan-2-yl)-3-(1H-pyrrolo[3,2-b]pyridine-2-carbonyl)-3-azabicyclo[3.1.0]hexane-2-carboxamide]
SARS-CoV-1 Mpro
  IC50: 116 nM
SARS-CoV-2 Mpro
  IC50: 35.5 nM
HCoV-HKU1 Mpro
  IC50: 39 nM
MERS Mpro
  IC50: 436 nM
HCoV-229E Mpro
  IC50: 46.3 nM
HCoV-OC43 Mpro
  IC50: 81.3 nM
HCoV-NL63 Mpro
  IC50: 58.9 nM

## O=C[C@H](C[C@@H]1CCNC1=O)NC(=O)[C@@H]1CC2(CCC2)CN1C(=O)C1(c2ccccc2)CC1 [Compound 84, (S)—N—((S)-1-Oxo-3-((S)-2-oxopyrrolidin-3-yl)propan-2-yl)-6-(1-phenylcyclopropanecarbonyl)-6-azaspiro[3.4]octane-7-carboxamide]
SARS-CoV-1 Mpro
  IC50: 88.3 nM
SARS-CoV-2 Mpro
  IC50: 36 nM
HCoV-HKU1 Mpro
  IC50: 17.3 nM
MERS Mpro
  IC50: 703 nM
HCoV-229E Mpro
  IC50: 47.6 nM
HCoV-OC43 Mpro
  IC50: 41.2 nM
HCoV-NL63 Mpro
  IC50: 185 nM

## Cc1cccc2[nH]c(C(=O)N3C[C@H]4[C@@H]([C@H]3C(=O)N[C@H](C=O)C[C@@H]3CCNC3=O)C4(C)C)cc12 [Compound 85, (1R,2S,5S)-6,6-Dimethyl-3-(4-methyl-1H-indole-2-carbonyl)-N—((S)-1-oxo-3-((S)-2-oxopyrrolidin-3-yl)propan-2-yl)-3-azabicyclo[3.1.0]hexane-2-carboxamide]
SARS-CoV-1 Mpro
  IC50: 48.2 nM
SARS-CoV-2 Mpro; [1]
  IC50: 36.7 nM
HCoV-HKU1 Mpro
  IC50: 23.2 nM
MERS Mpro
  IC50: 259 nM
HCoV-229E Mpro
  IC50: 34.6 nM
HCoV-OC43 Mpro
  IC50: 47.9 nM
HCoV-NL63 Mpro
  IC50: 53.2 nM

## CC1(C)[C@@H]2[C@@H](C(=O)N[C@H](C=O)C[C@@H]3CCNC3=O)N(C(=O)CC3CCOCC3)C[C@@H]21 [Compound 86, (1R,2S,5S)-6,6-Dimethyl-N—((S)-1-oxo-3-((S)-2-oxopyrrolidin-3-yl)propan-2-yl)-3-(2-(tetrahydro-2H-pyran-4-yl)acetyl)-3-azabicyclo[3.1.0]hexane-2-carboxamide]
SARS-CoV-1 Mpro
  IC50: 69.5 nM
SARS-CoV-2 Mpro
  IC50: 39.7 nM
HCoV-HKU1 Mpro
  IC50: 33.7 nM
MERS Mpro
  IC50: 318 nM
HCoV-229E Mpro
  IC50: 34.2 nM
HCoV-OC43 Mpro
  IC50: 52.5 nM
HCoV-NL63 Mpro
  IC50: 78.8 nM

## CC(C)c1ccc(Cl)c2[nH]c(C(=O)N3C[C@H]4[C@@H]([C@H]3C(=O)N[C@H](C=O)C[C@@H]3CCNC3=O)C4(C)C)cc12 [Compound 88, (1R,2S,5S)-3-(7-Chloro-4-isopropyl-1H-indole-2-carbonyl)-6,6-dimethyl-N—((S)-1-oxo-3-((S)-2-oxopyrrolidin-3-yl)propan-2-yl)-3-azabicyclo[3.1.0]hexane-2-carboxamide]
SARS-CoV-1 Mpro
  IC50: 46.2 nM
SARS-CoV-2 Mpro; [1]
  IC50: 40.3 nM
HCoV-HKU1 Mpro
  IC50: 21.2 nM
MERS Mpro
  IC50: 239 nM
HCoV-229E Mpro
  IC50: 41.5 nM
HCoV-OC43 Mpro
  IC50: 44.9 nM
HCoV-NL63 Mpro
  IC50: 68.5 nM

## CC1(C)[C@@H]2[C@@H](C(=O)N[C@H](C=O)C[C@@H]3CCNC3=O)N(C(=O)c3cc4cc(Cl)ccc4[nH]3)C[C@@H]21 [Compound 89, (1R,2S,5S)-3-(5-Chloro-1H-indole-2-carbonyl)-6,6-dimethyl-N—((S)-1-oxo-3-((S)-2-oxopyrrolidin-3-yl)propan-2-yl)-3-azabicyclo[3.1.0]hexane-2-carboxamide]
SARS-CoV-1 Mpro
  IC50: 65.4 nM
SARS-CoV-2 Mpro
  IC50: 40.9 nM
HCoV-HKU1 Mpro
  IC50: 31 nM
MERS Mpro
  IC50: 395 nM
HCoV-229E Mpro
  IC50: 44.7 nM
HCoV-OC43 Mpro
  IC50: 88.5 nM
HCoV-NL63 Mpro
  IC50: 69.5 nM

## Cn1c(C(=O)N2C[C@H]3[C@@H]([C@H]2C(=O)N[C@H](C=O)C[C@@H]2CCNC2=O)C3(C)C)cc2cc(Cl)ccc21 [Compound 90, (1R,2S,5S)-3-(5-Chloro-1-methyl-1H-indole-2-carbonyl)-6,6-dimethyl-N—((S)-1-oxo-3-((S)-2-oxopyrrolidin-3-yl)propan-2-yl)-3-azabicyclo[3.1.0]hexane-2-carboxamide]
SARS-CoV-1 Mpro
  IC50: 79.4 nM
SARS-CoV-2 Mpro
  IC50: 43.6 nM
HCoV-HKU1 Mpro
  IC50: 48 nM
MERS Mpro
  IC50: 655 nM
HCoV-229E Mpro
  IC50: 60.5 nM
HCoV-OC43 Mpro
  IC50: 130 nM
HCoV-NL63 Mpro
  IC50: 202 nM

## COc1cccc2cc(C(=O)N3C[C@H]4[C@@H]([C@H]3C(=O)N[C@H](C=O)C[C@@H]3CCNC3=O)C4(C)C)[nH]c12 [Compound 91, (1R,2S,5S)-3-(7-Methoxy-1H-indole-2-carbonyl)-6,6-dimethyl-N—((S)-1-oxo-3-((S)-2-oxopyrrolidin-3-yl)propan-2-yl)-3-azabicyclo[3.1.0]hexane-2-carboxamide]
SARS-CoV-1 Mpro
  IC50: 83.3 nM
SARS-CoV-2 Mpro; [1]
  IC50: 43.9 nM
HCoV-HKU1 Mpro
  IC50: 61.1 nM
MERS Mpro
  IC50: 396 nM
HCoV-229E Mpro
  IC50: 92.9 nM
HCoV-OC43 Mpro
  IC50: 110 nM
HCoV-NL63 Mpro
  IC50: 215 nM

## C[C@H](C(=O)N1C[C@H]2[C@@H]([C@H]1C(=O)N[C@H](C=O)C[C@@H]1CCNC1=O)C2(C)C)C1CCCCC1 [Compound 92, (1R,2S,5S)-3-((S)-2-Cyclohexylpropanoyl)-6,6-dimethyl-N—((S)-1-oxo-3-((S)-2-oxopyrrolidin-3-yl)propan-2-yl)-3-azabicyclo[3.1.0]hexane-2-carboxamide]
SARS-CoV-1 Mpro
  IC50: 89.6 nM
SARS-CoV-2 Mpro; [1]
  IC50: 45 nM
HCoV-HKU1 Mpro
  IC50: 39.4 nM
MERS Mpro
  IC50: 418 nM
HCoV-229E Mpro
  IC50: 43.9 nM
HCoV-OC43 Mpro
  IC50: 109 nM
HCoV-NL63 Mpro
  IC50: 162 nM
